Patent US20240122212A1 (SUNTORY HOLDINGS LIMITED, priority 2020, published 2024)
Read-outs that look alike come from different tables or passages of the source.

Tests used:
[1] = sucrose per unit concentration Brix 1 = 1, cited from earlier work
[2] = biological target: T1, sweet taste receptor (T1R2/T1R3) (Homo sapiens, UniProt Q7RTX0+Q8TE23); assay: Sensory evaluation of sweetness intensity (VAS) in the co-presence of sweet taste receptor inhibitor lactisole (Example 5); type: in vivo; conditions: for Sweetness intensity residual ratio (%) with addition of 100 ppm lactisole: lactisole-free solution = 100%, sucrose 8 w/v %, sucralose 149 ppm, D- or L-arabinose 13.3 w/v %, VAS, average of n=3
T1 construct: endogenous in cells; host or cells: taste cells in the mouths of 3 trained human panelists (in vivo spitting test)
T1 sequence (Q8TE23 20-839): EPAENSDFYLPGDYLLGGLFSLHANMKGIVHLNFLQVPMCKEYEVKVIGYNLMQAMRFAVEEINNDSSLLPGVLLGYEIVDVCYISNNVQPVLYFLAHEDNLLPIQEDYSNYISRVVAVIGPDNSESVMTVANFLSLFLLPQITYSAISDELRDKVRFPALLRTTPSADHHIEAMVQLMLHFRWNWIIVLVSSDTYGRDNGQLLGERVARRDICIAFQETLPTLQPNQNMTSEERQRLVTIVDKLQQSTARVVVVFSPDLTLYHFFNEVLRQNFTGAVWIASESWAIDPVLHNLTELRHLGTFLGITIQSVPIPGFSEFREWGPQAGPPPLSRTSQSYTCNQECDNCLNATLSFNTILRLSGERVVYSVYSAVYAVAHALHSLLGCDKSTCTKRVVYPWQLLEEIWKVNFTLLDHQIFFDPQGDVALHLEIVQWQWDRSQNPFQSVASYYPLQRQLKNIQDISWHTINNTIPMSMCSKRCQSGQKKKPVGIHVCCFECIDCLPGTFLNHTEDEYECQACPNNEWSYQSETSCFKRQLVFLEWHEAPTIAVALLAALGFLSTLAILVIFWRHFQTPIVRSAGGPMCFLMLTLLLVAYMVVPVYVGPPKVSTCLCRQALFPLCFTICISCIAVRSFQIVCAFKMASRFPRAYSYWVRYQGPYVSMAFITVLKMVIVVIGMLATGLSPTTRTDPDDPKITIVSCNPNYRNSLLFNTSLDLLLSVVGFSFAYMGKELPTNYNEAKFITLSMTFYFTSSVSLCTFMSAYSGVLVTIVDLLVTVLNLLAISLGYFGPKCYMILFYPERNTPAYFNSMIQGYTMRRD
T1 sequence (Q7RTX0 21-852): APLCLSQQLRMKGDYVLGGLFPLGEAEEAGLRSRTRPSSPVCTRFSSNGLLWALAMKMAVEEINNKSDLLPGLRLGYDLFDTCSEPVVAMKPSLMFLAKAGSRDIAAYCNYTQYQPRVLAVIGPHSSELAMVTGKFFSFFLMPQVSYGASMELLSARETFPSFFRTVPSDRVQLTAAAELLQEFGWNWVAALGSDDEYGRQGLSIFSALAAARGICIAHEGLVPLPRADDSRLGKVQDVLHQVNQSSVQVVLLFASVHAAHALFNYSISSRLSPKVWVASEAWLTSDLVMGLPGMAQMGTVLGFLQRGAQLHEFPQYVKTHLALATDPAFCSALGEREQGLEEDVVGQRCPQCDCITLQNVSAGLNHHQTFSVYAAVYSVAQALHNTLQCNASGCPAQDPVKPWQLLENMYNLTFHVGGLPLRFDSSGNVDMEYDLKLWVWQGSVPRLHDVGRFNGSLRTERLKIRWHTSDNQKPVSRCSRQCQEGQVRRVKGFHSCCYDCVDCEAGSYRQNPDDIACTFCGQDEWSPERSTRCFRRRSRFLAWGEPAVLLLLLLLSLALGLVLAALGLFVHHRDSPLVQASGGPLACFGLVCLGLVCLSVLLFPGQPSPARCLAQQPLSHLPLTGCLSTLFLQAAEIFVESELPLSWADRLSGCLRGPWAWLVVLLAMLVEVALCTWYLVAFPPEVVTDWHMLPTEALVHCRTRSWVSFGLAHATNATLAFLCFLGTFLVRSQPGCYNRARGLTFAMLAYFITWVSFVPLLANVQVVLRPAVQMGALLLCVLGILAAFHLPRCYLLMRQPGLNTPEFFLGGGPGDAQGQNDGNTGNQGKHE
Excerpt: Whether or not a certain sweet substance can trigger a sweetness response even if a sweetness response through the sweet taste receptor T1R2/T1R3 is inhibited may be determined by, for instance, measuring, by sensory evaluation or cell assay, the sweetness intensity of a solution (control solution), in which only the above sweet substance has been dissolved, and the sweetness intensity (remaining sweetness intensity) of a solution (test solution), in which a sweet taste receptor T1R2/T1R3 inhibitor (e.g., lactisole, gymnemic acid) is added for inhibiting a sweetness response through the sweet taste receptor T1R2/T1R3 to the control solution; and by comparing the sweetness intensity of the control solution and the sweetness intensity of the test solution.
The evaluation was carried out by those (3 persons) who received sensory trainings as panelists. […] Additionally, solutions having the same composition as sample solutions 1, 2, 3, and 4 except that lactisole was not added were used as control solutions 1, 2, 3, and 4. The sensory evaluation was carried out by spitting test. The sweetness intensity was rated by the VAS scale and calculated with the intensity of a solution to which lactisole was not added being 100% and the sweetness intensity of a solution to which lactisole was added as a relative value (%). The sweetness inhibitory effect by lactisole was verified by this.

[3] = Degree of sweetness relative to sucrose; conditions: value used to design the sample solutions of Example 5
Excerpt: The “sweetness intensity” means an intensity of sweetness of a substance. […] A numerical value obtained by multiplying the degree of sweetness by a concentration Brix value of glucose is the sweetness intensity of glucose in terms of sucrose. Thus, when a concentration of glucose in terms of sucrose is Brix 1.5, the sweetness intensity of glucose is 0.65×1.5=0.975. The sweetness intensity of a sweetener in terms of sucrose can be calculated from a degree of sweetness shown in the following table or a value of a known degree of sweetness.
For example, when the sweetness intensity of sucrose per unit concentration Brix 1 is defined as a degree of sweetness of 1, a degree of sweetness of rebaudioside D is about 200 to 250 (median value 225), a degree of sweetness of rebaudioside M is about 200 to 260 (median value 230), a degree of sweetness of rebaudioside B is about 325, a degree of sweetness of rebaudioside A is about 200 to 300 (median value 250), a degree of sweetness of rebaudioside N is about 200 to 250 (median value 225), a degree of sweetness of rebaudioside O is about 200 to 250 (median value 225), a degree of sweetness of rebaudioside E is about 70 to 80 (median value 75), a degree of sweetness of a Luo han guo extract (containing 40% of Mog V) is about 110 to 150 (median value 130), a degree of sweetness of mogroside V is about 240 to 300 (median value 270), and a degree of sweetness of thaumatin is about 2,000, and a degree of sweetness of brazzein is about 500 to 2,000 (median value 1,250). The numerical value obtained by multiplying these degrees of sweetness by a concentration (w/v % (considered to be the same as w/w % in the case of a beverage)) of the high-intensity sweetener in a fruit juice beverage is a sweetness intensity of the high-intensity sweetener. The relative ratio in degrees of sweetness of various sweeteners to the degree of sweetness of 1 of sucrose can be determined from a known sugar sweetness conversion table, and the like. In the present description, when a degree of sweetness is shown in a numerical value range, the median value may be used. However, a sweetener having different values in a degree of sweetness by literatures, a relative ratio in a degree of sweetness to the degree of sweetness of 1 of sucrose can be defined by a sensory test. Examples of such a sensory test include a method in which samples were prepared by adding sucrose having a sweetness intensity of Brix 3.0 to 5.0 in 0.5 increments to pure water, and of which a sucrose-added sample having a sweetness intensity equal to an aqueous solution of a sweetener in a predetermined concentration is selected.
Additionally, for a sweetener with a variable degree of sweetness as a sweetness intensity increases, degrees of sweetness in different concentrations are actually measured and plotted whereby a degree of sweetness in a predetermined concentration may be calculated from the obtained approximate curve.

[4] = Basic taste quality sensory evaluation by trained panelists, spitting test, against 6% sucrose control (Example 1); type: in vivo, human; conditions: scale −3 to 3, 0 = no difference from 6% sucrose control; D-allulose 8.57 w/v %, D-arabinose 10 w/v % in pure water; 4 panelists
Experimental: In each evaluation item, the rating on a scale of −3 point to 3 point was performed, with the case where there is no difference from the control solution being 0. Quicker in sweetness onset, higher sweetness intensity, shorter lingering sweet aftertaste, lower bitterness intensity, and shorter lingering bitter aftertaste compared to the control were rated near 3 points. Slower in sweetness onset, lower sweetness intensity, longer lingering sweet aftertaste, higher bitterness intensity, and longer lingering bitter aftertaste compared to the control were rated near −3 points. That is, the closer to 0 point, the closer to the control. The evaluation was carried out by those (4 persons) who received sensory trainings as panelists by spitting test. The amount of a sweet substance contained in each sample solution was adjusted to be equal to the control solution on the calculation. […] The energy (kcal/100 ml) was calculated from the amount of the sweetener added.

O=C[C@H](O)[C@H](O)[C@H](O)[C@H](O)CO [Allose]
Degree of sweetness ([1]; Table 1): 0.8

O=C[C@H](O)[C@@H](O)[C@@H](O)CO [L-Arabinose]
remaining sweetness intensity when 100 ppm of lactisole was added, compared with sucrose ([2]; 100 ppm lactisole): equal to or more than that of sucrose
Sweetness intensity residual ratio (%) with addition of 100 ppm lactisole [2]: 34.43%
sweetness intensity, times as much as that of sucrose [3]: 0.6 times

OC[C@H]1O[C@H](O[C@H]2[C@H](O)[C@@H](O)[C@H](O)O[C@@H]2CO)[C@H](O)[C@@H](O)[C@@H]1O [Maltose]
Degree of sweetness ([1]; Table 1): 0.4

OC[C@H]1O[C@H](O[C@]2(CCl)O[C@H](CCl)[C@@H](O)[C@@H]2O)[C@H](O)[C@@H](O)[C@H]1Cl [Sucralose]
Sweetness intensity residual ratio (%) with addition of 100 ppm lactisole [2]: 8.99%
sweetness intensity, times as much as that of sucrose [3]: 538.54 times

OC[C@H]1O[C@@](CO)(O[C@H]2O[C@H](CO)[C@@H](O)[C@H](O)[C@H]2O)[C@@H](O)[C@@H]1O [Sucrose]
Bitterness intensity [4]: 0 point
Lingering bitter aftertaste [4]: 0 point
Lingering sweet aftertaste [4]: 0 point
Quickness in sweetness onset [4]: 0 point
Sweetness intensity [4]: 0 point
Sweetness intensity residual ratio (%) with addition of 100 ppm lactisole [2]: 29.05%
Degree of sweetness ([1]; Table 1): 1

O=C(CO)[C@@H](O)[C@@H](O)[C@H](O)CO [Tagatose]
Degree of sweetness ([1]; Table 1): 0.9

rebaudioside B
Degree of sweetness ([1]; high-intensity sweeteners): about 325

thaumatin
Degree of sweetness ([1]; high-intensity sweeteners): about 2,000
